Patent US6569858B2, “12,13-(pyranosyl)-indolo[2,3-a]pyrrolo[3,4-c]carbazole and 12,13-(pyranosyl)-furo[3,4-c]indolo[2,3-a]carbazoles” (Les Laboratoires Servier, priority 1999, dated 2003)

Tested on: murine leukaemia L1210
Assay: Murine leukaemia L1210 in vitro cytotoxicity (Microculture Tetrazolium Assay)
Assay type: cell-based
Details: L1210, exposure 48 hours (four doubling periods); read-out: IC50, the cytotoxic concentration that inhibits proliferation of treated cells by 50%
Experimental: The murine leukaemia L1210 was used in vitro. The cells are cultured in complete RPMI 1640 culture medium comprising 10% foetal calf serum, 2 mM glutamine, 50 units/ml of penicillin, 50 μg/ml of streptomycin and 10 mM Hepes, pH 7.4. The cells are distributed on microplates and are exposed to the cytotoxic compounds for four doubling periods, that is to say 48 hours. The number of viable cells is then quantified by a colorimetric assay, the Microculture Tetrazolium Assay (J. Carmichael et al., Cancer Res., 47, 936-942, (1987)). The results are expressed as IC50, the cytotoxic concentration that inhibits proliferation of treated cells by 50%.

SMILES	IC50 [nM]
COC1C(CO)OC2C(C1O)n1c3ccc([N+](=O)[O-])cc3c3c4c(c5c6cc([N+](=O)[O-])ccc6n2c5c31)C(=O)NC4=O [Example 13, 3,9-Dinitro-12,13-[1,2-(4—O-methyl-β-D-mannopyranosyl)]-6,7,12,13-tetrahydro-(5,H)-indolo[2,3-a]pyrrolo[3,4-c]carbazole-5,7-dione]	130
COC1C(CO)OC2C(C1O)n1c3ccc(Br)cc3c3c4c(c5c6cc(Br)ccc6n2c5c31)C(=O)NC4=O [Example 19, 3,9-Dibromo-12,13-[1,2-(4—O-methyl-β-D-mannopyranosyl)]-6,7,12,13-tetrahydro-(5H)-indolo[2,3-a]pyrrolo[3,4-c]carbazole-5,7-dione]	140
